{
  "source": "patent US5102888A",
  "about": "“Quinoline type mevalonolactones useful for treating hyperlipidemia and related diseases” (Nissan Chemical Industries Ltd., priority 1987, dated 1992)",
  "target": "cholesterol biosynthesis wherein HMG-CoA reductase acts as a rate limiting enzyme (rat liver microsome and sup fraction)",
  "assay": "Test A: Inhibition of Cholesterol Biosynthesis from Acetate In Vitro",
  "type": "biochemical, male Wistar rat",
  "conditions": "for IC50: [2-14C]sodium acetate incorporation, rat liver microsome + sup fraction, 2 hours, 37° C., read-out: I50 (Inhibitory activities by Test A); for Relative activities by Test A: relative to activity of CS-514 evaluated to be 1",
  "procedure": "Enzyme solution was prepared from liver of male Wistar rat billialy cannulated and discharged bile for over 24 hours. Liver was cut out at mid-dark and microsome and supernatant fraction which was precipitable with 40-80% of saturation of ammonium sulfate (sup fraction) were prepared from liver homogenate according to the modified method of Knauss et. al.; Kuroda, M., et. al., Biochim. Biophys. Acta, 489, 119 (1977). For assay of cholesterol biosynthesis, microsome (0.1 mg protein) and sup fraction (1.0 mg protein) were incubated for 2 hours at 37° C. in 200 μl of the reaction mixture containing ATP; 1 mM, Glutathione; 6 mM, Glucose-1-phosphate; 10 mM, NAD; 0.25 mM, NADP; 0.25 mM, CoA; 0.04 mM and 0.2 mM [2-^14 C]sodium acetate (0.2 μCi) with 4 μl of test compound solution dissolved in water or dimethyl sulfoxide. To stop reaction and saponify, 1 ml of 15% EtOH--KOH was added to the reactions and heated at 75° C. for 1 hour. […] Inhibitory activity of compounds was indicated with IC50.",
  "note": "Where a name gives a salt, the structure may show the parent alone.",
  "data": [
    {"compound": "CCC(C)C(=O)OC1CC(O)C=C2C=CC(C)C(CCC(O)CC(O)CC(=O)O)C21", "note": "(stereo not shown) [CS-514, reference compound]", "values": [
      {"measurement": "IC50", "value": 9, "unit": "nM"}
    ]},
    {"compound": "CC(C)c1nc2ccccc2c(-c2ccc(F)cc2)c1/C=C/C(O)CC(O)CC(=O)O", "note": "(stereo not shown) [Compound I-51, Sodium salt of (E)-3,5-dihydroxy-7-[4'-(4\"-fluorophenyl)-2'-(1\"-methylethyl)-quinolin-3'-yl]-hept-6-enoic acid]", "values": [
      {"measurement": "IC50", "value": 10, "unit": "nM"}
    ]},
    {"compound": "CCOC(=O)CC(O)CC(O)/C=C/c1c(CC)nc2ccccc2c1-c1ccc(F)cc1", "note": "(stereo not shown) [Compound I-117]", "values": [
      {"measurement": "Relative activities by Test A", "value": 0.37}
    ]},
    {"compound": "CC(C)c1nc2c(Cl)cc(Cl)cc2c(-c2ccc(F)cc2)c1/C=C/C(O)CC(O)CC(=O)O", "note": "(stereo not shown) [Compound I-522]", "values": [
      {"measurement": "Relative activities by Test A", "value": 0.76}
    ]}
  ]
}
